Drawing on ChEMBL document CHEMBL5614445, “Asymmetric Dirhodium-Catalyzed Modification of Immunomodulatory Imide Drugs and Their Biological Assessment” (ACS Med Chem Lett, 2024), this text covers Activity and DC50 for eight molecules.

Holding throughout (assay type): cell-based
Experiment [1] has as its target Zinc finger protein Aiolos (Homo sapiens) (UniProt Q9UKT9). Description: Induction of N-terminal HiBiT tag knocked in IKZF3 degradation in human DF15 cells assessed as remaining protein level incubated for 60 mins by Nano-Glo HiBiT lytic reagent based assay relative to control. A general note: HiBiT is a short tag that completes a luciferase, so light tracks the accessible tagged protein.

Experiment [2] concerns the target Casein kinase I isoform alpha (Homo sapiens) (UniProt P48729). Description: Induction of ePL tagged CK1alpha degradation in human MDS-L cells assessed as remaining protein level incubated for 60 mins by luminescence reader assay relative to control.
For experiment [3], the target named is T1, Eukaryotic peptide chain release factor GTP-binding subunit ERF3A (Homo sapiens, UniProt P15170). Description: Induction of ePL tagged GSPT1 degradation in human DF15 cells assessed as remaining protein level incubated for 60 mins by luminescence reader assay relative to control.
The target in experiment [4] is T1, Eukaryotic peptide chain release factor GTP-binding subunit ERF3A. Description: Induction of ePL tagged GSPT1 degradation in human DF15 cells incubated for 60 mins by luminescence reader assay. The following applies: read-out: EC50 (the source's name).

T1 sequence (P15170 whole entry): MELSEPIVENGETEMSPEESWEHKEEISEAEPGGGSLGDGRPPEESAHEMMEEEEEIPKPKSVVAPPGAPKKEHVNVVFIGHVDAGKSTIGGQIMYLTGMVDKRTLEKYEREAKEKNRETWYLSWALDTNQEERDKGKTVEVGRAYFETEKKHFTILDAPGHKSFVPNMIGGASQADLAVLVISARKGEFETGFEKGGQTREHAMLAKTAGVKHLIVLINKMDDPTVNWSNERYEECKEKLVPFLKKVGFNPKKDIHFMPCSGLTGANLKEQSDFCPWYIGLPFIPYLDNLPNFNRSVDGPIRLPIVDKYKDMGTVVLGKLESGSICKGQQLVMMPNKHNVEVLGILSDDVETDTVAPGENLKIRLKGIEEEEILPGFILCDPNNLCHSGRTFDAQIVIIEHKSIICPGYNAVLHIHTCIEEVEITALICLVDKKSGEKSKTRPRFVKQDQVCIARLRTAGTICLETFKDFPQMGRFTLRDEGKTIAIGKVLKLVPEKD
Zinc finger protein Aiolos (Homo sapiens), sequence (Q9UKT9 whole entry): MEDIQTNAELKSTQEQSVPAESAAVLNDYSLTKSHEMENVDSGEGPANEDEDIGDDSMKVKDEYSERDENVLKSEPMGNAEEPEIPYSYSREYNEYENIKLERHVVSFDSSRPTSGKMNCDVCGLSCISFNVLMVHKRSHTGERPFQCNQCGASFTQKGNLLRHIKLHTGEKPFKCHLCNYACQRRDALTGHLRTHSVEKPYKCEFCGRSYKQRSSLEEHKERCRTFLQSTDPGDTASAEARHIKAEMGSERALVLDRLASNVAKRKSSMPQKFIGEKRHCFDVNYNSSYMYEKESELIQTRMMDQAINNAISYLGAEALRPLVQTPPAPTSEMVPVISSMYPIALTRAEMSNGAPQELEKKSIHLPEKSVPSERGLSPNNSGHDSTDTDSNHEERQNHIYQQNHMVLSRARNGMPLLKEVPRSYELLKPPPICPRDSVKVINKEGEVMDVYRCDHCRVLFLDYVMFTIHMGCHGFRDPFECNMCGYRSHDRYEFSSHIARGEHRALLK
Casein kinase I isoform alpha (Homo sapiens), sequence (P48729 2-337 limits assumed): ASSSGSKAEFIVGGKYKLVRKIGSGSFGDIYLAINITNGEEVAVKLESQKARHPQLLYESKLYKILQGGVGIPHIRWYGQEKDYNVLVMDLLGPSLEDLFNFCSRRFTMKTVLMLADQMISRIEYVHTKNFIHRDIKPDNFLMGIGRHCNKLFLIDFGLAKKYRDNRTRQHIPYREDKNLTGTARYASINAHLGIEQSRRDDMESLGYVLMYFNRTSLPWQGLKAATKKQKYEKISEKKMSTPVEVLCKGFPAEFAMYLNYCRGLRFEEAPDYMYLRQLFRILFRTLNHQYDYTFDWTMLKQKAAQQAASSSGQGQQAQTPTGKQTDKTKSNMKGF

As to `O=C1CCC(N2C(=O)c3cccc([C@H]4C[C@@]4(C(=O)OCC(Cl)(Cl)Cl)c4ccc(Br)cc4)c3C2=O)C(=O)N1` (some centres undefined), in experiment [1], the Activity was 99%.
In the case of `O=C1CCC(N2Cc3cc([C@@H]4C[C@]4(C(=O)OCC(Cl)(Cl)Cl)c4ccc(Br)cc4)ccc3C2=O)C(=O)N1` (some centres undefined), the Activity in experiment [2] stood at 92%.
Consider `O=C1CCC(N2C(=O)c3ccc(C4=C[C@]4(C(=O)OCC(Cl)(Cl)Cl)c4ccc(Br)cc4)cc3C2=O)C(=O)N1` (some centres undefined), for which the Activity in experiment [3] turned out to be 2.3%.
With `O=C1CCC(N2Cc3c(cccc3C3=C[C@]3(C(=O)OCC(Cl)(Cl)Cl)c3ccc(Br)cc3)C2=O)C(=O)N1` (some centres undefined), the Activity in experiment [1] amounted to 9.2%.
For `O=C1CCC(N2C(=O)c3ccc([C@@H]4C[C@]4(C(=O)OCC(Cl)(Cl)Cl)c4ccc(Br)cc4)cc3C2=O)C(=O)N1` (some centres undefined), the Activity in experiment [3] was 100%.
For `O=C1CCC(N2Cc3cc([C@H]4C[C@@]4(C(=O)OCC(Cl)(Cl)Cl)c4ccc(Br)cc4)ccc3C2=O)C(=O)N1` (some centres undefined), the Activity in experiment [2] turned out to be 44%.
As for `O=C1CCC(N2C(=O)c3ccc(C4=C[C@@]4(C(=O)OCC(Cl)(Cl)Cl)c4ccc(Br)cc4)cc3C2=O)C(=O)N1` (some centres undefined), the Activity in experiment [3] worked out at 1.4%. In addition, in experiment [4], the DC50 was found to be 1400 nM.
On to `O=C1CCC(N2Cc3c(cccc3[C@@H]3C[C@]3(C(=O)OCC(Cl)(Cl)Cl)c3ccc(Br)cc3)C2=O)C(=O)N1` (some centres undefined), for which, in experiment [1], the Activity is 79%.
